One data set has as its system GAG in the matrix. The data set is described as follows: Suppression of reduction in GAG in the matrix caused by stimulation of interleukin-1 or the like.
Data set [1] has as its system Crj: CD-1 (ICR) male mice. Briefly: Acute toxicity of esculetin derivatives, mice. As to conditions: mouse, in vivo. The procedure: (§1) The toxicity of the esculetin derivatives of the present invention was examined. Typical examples of the present derivatives were administered orally at a dose of 2000 mg/kg (body weight) to male mice and male rats which were then observed for seven days. No deaths and no remarkable toxicity were observed. The esculetin derivatives of the present invention are extremely safe compounds (see Example 27).
(§2) The acute toxicity of the present substance was examined using Crj: CD-1 (ICR) male mice (6 weeks old) and Wistar male rats (6 weeks old). 6-(β-2-acetoamide-2-deoxy-D-glucopyranosyloxy)-7-hydroxycoumarin [Ib-2] […] No deaths were observed. […] In the experiments, two animals were used for each group.

A further data set concerns Wistar male rats. Briefly: Acute toxicity of esculetin derivatives, rats. As to conditions: rat, in vivo. The protocol: as §1, §2

Here are results for three compounds from patent publication US5736522A, “Esculetin derivatives and method for manufacture thereof, use thereof, and pharmaceutical composition” (Kureha Chemical Industry Co., Ltd., priority 1993, dated 1998).

Turning to `Cc1cc(=O)oc2cc(O)c(O)cc12` [4-methylesculetin], in the data set on GAG in the matrix, the “suppression of the reduction in GAG in the matrix” value was “strongly suppress the reduction in the GAG in the matrix”.

For the compound `CC(=O)N[C@H]1[C@H](Oc2cc3ccc(=O)oc3cc2O)O[C@H](CO)[C@@H](O)[C@@H]1O` [Ib-2], the deaths entry (in data set [1]; in the data set on Wistar male rats) was “No deaths” in each case. Regarding `O=c1ccc2cc(O)c(O)cc2o1` [esculetin], the “suppression of the reduction in GAG in the matrix” value in the data set with GAG in the matrix was “strongly suppress the reduction in the GAG in the matrix”.
